Patent publication US12188095B2, “Methods and compositions for identifying and treating patients with small cell lung cancer” (UNIVERSITY OF UTAH RESEARCH FOUNDATION, priority 2016, dated 2025)

Key:
human cell lines = test: Human cell line viability with BCL2 inhibitors (CellTiter-Glo, GI50); type: cell-based; conditions: 96 h
Description: Human cell lines were seeded in triplicate in white, flat-bottomed 96-well plates at 2000 cells/well. […] Drug was added again at 48 h to maintain the desired final concentration. After 96 h of treatment, cell viability was measured using Cell Titer Glo (CTG) assay (Promega, Madison, Wis., USA) and plates were read on a luminometer. Normalized, transformed dose response curves were generated and analyzed using GraphPad Prism (GraphPad, La Jolla, Calif., USA) to determine GI50 for each compound (see, FIG. 13). Error bars represent mean+/−SEM.

[1] = tested on: RPM mouse SCLC cell lines; test: Mouse cell viability and proliferation assays (CellTiter-Glo, GI50); type: cell-based; conditions: 96 hrs; for GI50: RPM cell lines (n=7)
Description: Mouse cell viability and proliferation assays. Cells were seeded in triplicate (1500/well) in white, flat-bottom 96-well plates. […] After 96 hrs of treatment, cell viability was measured using Cell Titer Glo (CTG, Promega, Madison, Wis., USA) on a luminometer. Normalized, transformed dose response curves were generated and analyzed using GraphPad Prism (GraphPad, La Jolla, Calif., USA) to determine GI50 for each compound. […] Confluence percentage at each time point was calculated by the Essen IncuCyte software.

human SCLC cell lines = test: Drug screening of human SCLC cell lines (CellTiter-Glo viability, GI50); type: cell-based; conditions: 17 human SCLC cell lines, 72-96 hr; adjusted p: etoposide 0.038, alisertib 0.001, barasertib 0.022
Description: Drug screening. Human SCLC cell lines were cultured in RPMI or HITES as described before (Sos et al., 2012). […] After 96 hr, cell viability was analyzed using CTG reagent. […] For PF-670462 (Apexbio), MS436 (MedChem Express), barasertib/1152-HQPA (Apexbio), alisertib/MLN8237 (Apexbio) and milciclib/PHA-848125 (MedChem Express), all dissolved in DMSO, indicated cell lines were screened using the same protocol in 384-well format with 500 (adherent) or 5000 (suspension) cells per well (25 ml) and treated using a robotic system (CyBio CyBi well vario). Upon treatment, cells were incubated for 72 hr prior to addition of CTG reagent. Each cell line and concentration was analyzed in quadruplicate per experiment with n=3 independent trials.

[2] = tested on: human SCLC cell lines infected with Bcl-2 vector; test: Viability of human SCLC cell lines overexpressing BCL2; type: cell-based; conditions: human SCLC cell lines with pMSCV PIG Bcl-2 vs empty vector
Description: HEK293T cells were transfected with pMSCV PIG (Addgene Plasmid #21654) empty vector, or pMSCV PIG with an insert that encodes the human Bcl-2 gene in addition to pCMV-VSVG and pCMV delta R8.2 plasmids using TransIT-LT1 (Minis). Virus was collected at 48 and 72 hr post-transfection. Human SCLC cell lines were infected with viral supernatant. Infected cells were selected with puromycin for several days until all uninfected cells were killed by puromycin. […] Cell viability assays were carried out as previously described, with the addition of Alisertib+/−0.5 uM ABT-199 (ApexBio) using the infected human cell lines described above. Cell viability assays were carried out as previously described, with the addition of Alisertib+/−0.5 uM ABT-199 (ApexBio) using the infected human cell lines described above.

[3] = tested on: MYC-high vs. MYC-low human SCLC cell lines; conditions: 68 human SCLC cell lines binned by MYC expression, data of Polley et al., 2016; cited from earlier work
[4] = tested on: RPM mice with Myc-driven SCLC; test: In vivo drug study in RPM mice (microCT tumor volume, survival); design: species or system mouse
Description: Alisertib (MLN8237, ApexBio, dissolved in 10% 2-hydroxy-beta-cyclo-dextrin and 1% sodium bicarbonate) was given 20 mg/kg twice daily by oral gavage on a schedule of 5 days on, 2 days off. […] For survival studies, endpoints include but are not limited to: difficulty breathing, eating or moving, obvious signs of pain or weight loss greater than 20% of initial body weight.
Mice were scanned for 34 sec under isoflurane anesthesia using a small animal Quantum FX microCT (PerkinElmer) at 45 μm resolution, 90 kV with 160 μA current. Images were acquired using PerkinElmer Quantum FX software and processed with Analyze 11.0 (AnalyzeDirect).
Scans were calibrated for Hounsfield Units (HU) by determining the mean value of “Bed” and “Air” for representative scans through the region of interest (ROI) tool and matching those values to their known HU (40 HU and −1000 HU, respectively) using the “Image Algebra” tool. Every image was then applied a 3×3×3 Median Filter from the “Spatial Filters” window. Thresholds of “Air” vs. “Dense Tissue” were established using the ROI and histogram tools. Every image was processed and normalized using the “Image Algebra” tool, followed by a 3×3×3 Median Filter from the “Spatial Filters” window. For Total Tumor Burden Analyses, the object map was created using the previously established thresholds; adjustments were made manually using “Spline Edit”, “Draw” and “Nudge Edit” tools. The object map was then morphed using the “Morphology” tool. The object map was made binary by using the threshold morphing tool. Then, the map was dilated 3 times using 5×5×5 Jack-shaped structuring elements. The holes were then filled on every 2D-orientation. The map was finally brought back to its original size using the “Erode” tool 3 times using 5×5×5 Jack-shaped structuring elements. The volumetric analyses were then performed in the ROI window using the pre-established thresholds and non-airspace was calculated using the formula: Non-airspace=1−(VolAir/ROIVol). For individual tumors, the 3D segmentation was performed semiautomatically using Analyze 11.0 “object extract tool”. Adjustments were made manually using the “Spline Edit”, “Draw” and “Nudge Edit” tools. The tumor segmentation was then processed using the semi-automatic tools “fill holes” and the object was propagated and smoothed in the axial, transverse and coronal planes. Volume quantification was obtained using the ROI tool as for total tumor burden analyses.
Total tumor volume was quantified relative to total air volume as a comprehensive measurement of treatment impact. […] The percent change in total tumor volume was analyzed at Day 19 (or at the time of death, if sooner) compared to Day 0 in each treatment group by waterfall plot.

MYC = MYC protein level and stability (immunoblot, cycloheximide); type: cell-based; conditions: mouse or human cells, also after cycloheximide block of protein synthesis
Description: Alternatively, cell lysates were prepared using RIPA buffer supplemented with protease inhibitors (Roche complete mini) and benzonase (Millipore)), separated on 4-20% Tris-glycine SDS-PAGE gels (Invitrogen), and transferred to PVDF-FL membrane (Millipore). Membranes were blocked using Li-Cor blocking buffer (1:10 in TBS) and incubated with primary antibodies in blocking solution with 0.2% Tween 20 overnight at 4° C. Prior to detection with a near-IR imaging system (Li-Cor Odyssey), membranes were washed in TBS-T, incubated with secondary antibodies and washed in TBS-T. For total Aurora A in FIG. 6H, the chemiluminescent signal (ECL, GE Healthcare) was captured with a CCD-camera (BioRad Geldoc XR+). […]
Protein stability cycloheximide (CHX) experiments. […] Protein lysates were prepared using RIPA buffer as described above, separated on 4-20% Tris-glycine gels (Invitrogen), and analyzed by immunoblot against Myc and Hsp90. Signals were quantified using Li-Cor Image Studio (Li-Cor Biosciences) and ratios of Myc/Hsp90 normalized to the 0 min time point. […]

relapsed SCLC = conditions: monotherapy, relapsed SCLC (Melichar et al., 2015); cited from earlier work
RPM tumors = test: IHC and histology of tumors of treated RPM mice; type: in vivo, mouse
Description: Sections were dewaxed, rehydrated and subjected to high temperature antigen retrieval, 20 min boiling in a pressure cooker in 0.01 M citrate buffer, pH 6.0. Slides were blocked in 3% H202 for 15 min, blocked in 5% goat serum in PBS/0.1% Tween-20 (PBS-T) for 1 hr, and stained overnight in blocking buffer with primary antibodies. A HRP conjugated secondary antibody (Vector Laboratories) was used at 1:200 dilution in PBS-T, incubated for 45 min at room temperature, followed by DAB staining (Vector Laboratories). All staining was performed with Sequenza coverplate technology. Mouse on Mouse (M.O.M.) Basic Kit (Vector Laboratories) was used for staining with BrdU and Ki67 mouse primary antibodies. Tris buffered saline with Tween-20 (TBS-T) was used instead of PBS-T for phospho-protein antibodies. […]
For automated image analysis, IHC-stained slides were digitally scanned with the Aperio AT2 Scanscope and whole slides images were quantitatively analyzed with image analysis nuclear algorithm using Halo digital imaging analysis software (Indica Labs, NM, USA). […] Results are expressed as percent positive cells per tumor area.

AURKB = molecular target: T1, AURKB (Homo sapiens, UniProt Q96GD4); test: Immunoblot of Aurora kinase inhibition in treated cells; type: cell-based; conditions: concentrations in the range of the GI50-value, mouse and human cells
T1 construct: Whole cell lysates analyzed by immunoblot for indicated antibodies; endogenous in cells; host or cells: GLC2 (human SCLC)
T1 sequence (Q96GD4 whole entry): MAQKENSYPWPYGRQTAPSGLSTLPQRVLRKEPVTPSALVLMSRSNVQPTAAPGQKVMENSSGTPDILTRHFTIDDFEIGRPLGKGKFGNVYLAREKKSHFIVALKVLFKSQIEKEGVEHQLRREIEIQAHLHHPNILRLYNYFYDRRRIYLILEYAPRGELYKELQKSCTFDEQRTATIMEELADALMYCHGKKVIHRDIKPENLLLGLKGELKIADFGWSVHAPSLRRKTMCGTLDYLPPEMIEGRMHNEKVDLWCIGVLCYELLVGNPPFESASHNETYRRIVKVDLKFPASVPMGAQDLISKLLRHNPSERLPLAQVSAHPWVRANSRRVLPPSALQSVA
Description: Immunoblot. For primary lung tumor lysates, mouse lung tumors were micro-dissected under sterile conditions, flash frozen and stored at −80° C. until use. Approximately 20-40 mg tumor pieces were disrupted and lysed to homogeneity with disposable pestles and cordless motor (VWR) in 200 μl RIPA buffer supplemented with protease inhibitors (Roche complete mini) and sodium orthovanadate (Sigma). Lysates are centrifuged at 13000 rpm for 15 minutes and supernatants are transferred to new tubes. For cell line lysates, total protein lysates are prepared as previously described, separated via SDS-PAGE and transferred to a PVDF membrane (Oliver et al., 2011). Membranes were blocked for 1 hr in 5% milk or 5% BSA, followed by overnight incubation with primary antibodies at 4° C. Membranes were washed for 6×5 min at room temperature in TBS-T. Mouse and rabbit HRP-conjugated secondary antibodies (Jackson ImmunoResearch, 1:10,000) were incubated for 1 hr at room temperature followed by washing 6×5 min at room temperature in TBS-T. For detection, membranes were exposed to WesternBright HRP Quantum substrate (Advansta) and detected on Hyblot CL film (Denville Scientific Inc). […]

AURKA = test: as above; type: cell-based; conditions: concentrations in the range of the GI50-value, mouse and human cells
RPM cells = test: Cell cycle analysis (PI staining, flow cytometry); type: cell-based, mouse; conditions: 48 hr
Description: Cell cycle analysis. Cells were treated with indicated concentrations of alisertib (MLN8237, Selleckchem, Houston, Tex.) in 6-well plates and harvested with trypsin, washed twice in PBS, and 1×10^6 cells were fixed in ice-cold 70% ethanol overnight. Cells were washed 2× in PBS/1% BSA, treated with 100 μg/mL RNase for 10 min at 37° C., then stained with 25 μg/mL propidium iodide (PI) overnight at 4 C. Cells were analyzed on a BD FACScan flow cytometer and cell cycle analysis excluding cell doublets was performed using FlowJo software.

## CN(C)CC[C@H](CSc1ccccc1)Nc1ccc(S(=O)(=O)NC(=O)c2ccc(N3CCN(Cc4ccccc4-c4ccc(Cl)cc4)CC3)cc2)cc1[N+](=O)[O-] [ABT-737]
Human cell lines
  sensitivity (GI50) to BCL2 inhibition relative to MYC expression: MYC expression anti-correlates with BCL2 expression and sensitivity to BCL2 inhibition

## COc1cc([C@@H]2c3cc4c(cc3[C@@H](O[C@@H]3O[C@@H]5CO[C@@H](C)O[C@H]5[C@H](O)[C@H]3O)[C@H]3COC(=O)[C@H]23)OCO4)cc(OC)c1O [etoposide]
[1]
  GI50: nanomolar

## CC1(C)CCC(CN2CCN(c3ccc(C(=O)NS(=O)(=O)c4ccc(NCC5CCOCC5)c([N+](=O)[O-])c4)c(Oc4cnc5[nH]ccc5c4)c3)CC2)=C(c2ccc(Cl)cc2)C1 [ABT-199]
Human cell lines
  sensitivity (GI50) to BCL2 inhibition relative to MYC expression: MYC expression anti-correlates with BCL2 expression and sensitivity to BCL2 inhibition

## N.N.[Cl][Pt][Cl] [cisplatin]
[1]
  GI50: high micromolar

## COc1cc(Nc2ncc3c(n2)-c2ccc(Cl)cc2C(c2c(F)cccc2OC)=NC3)ccc1C(=O)O [alisertib]
Human SCLC cell lines
  drug response (GI50) of MYC-driven SCLCs versus those driven by MYCL or MYCN: significantly more responsive
[2]
  Alisertib sensitivity on BCL2 overexpression: BCL2 overexpression promotes Alisertib resistance
[3]
  efficacy (IC50) in MYC-high versus MYC-low cell lines: increased efficacy in MYC-high cell lines
[1]; RPM vs RPP, RP, KP cell lines
  sensitivity of RPM cells compared to adenocarcinoma cell lines and non-MYC-driven cells (GI50): particularly sensitive
[4]; Day 0 = start of treatment
  increase of median survival compared to untreated animals: 10 days
[4]; PBS 0%
  mice that survived 30 days: 8%
[4]; three cycles, alisertib 20 mg/kg twice daily 5 days on 2 off, cisplatin 5 mg/kg + etoposide 10 mg/kg once weekly
  tumor growth (total tumor volume by microCT): modest delay in tumor growth
[4]; waterfall plot
  overall response (percent change in total tumor volume Day 0-19) compared to untreated animals: did not impact overall response
MYC
  MYC protein level: did not primarily lead to reduced MYC protein
Relapsed SCLC
  patients exhibiting partial responses: ~20%
RPM tumors; alisertib 20 mg/kg twice daily
  cells with polyploidy and aberrant mitoses: dramatic enrichment
RPM tumors; compared to other treatment groups
  NEUROD1+ cells by IHC: significantly enriched
AURKB
  inhibition of AURKB: dose-dependent inhibition
AURKA
  inhibition of AURKA: dose-dependent inhibition
RPM cells; RPM cells compared to KP, RPP and RP cells
  subG1 cells: greater increase in subG1 cells
RPM cells; RPM cells
  G2/M phase cells: dose-dependent increase in G2/M phase cells
